In publication PMC8807399, “Synthesis, Characterization, and in vivo Evaluation of a Novel Potent Autotaxin-Inhibitor” (Frontiers in Pharmacology, 2022):
In brackets after ≈: the same amount, converted by molar mass.

Assays:
[1] = Glutathione addition screening; format: in vitro ADME; conditions: human liver microsomes + NADPH + GSH
Protocol: All sample handling was performed based on a 96-well plate format using an automated pipetting system. The test compounds, positive controls (diclofenac, troglitazone, nefazodone, 4-[[1-(4-fluorophenyl)-2-methyl-1H-imidazol-4-yl]ethynyl]-2-methylpyridine) and solvent control (DMSO) were incubated with human liver microsomes supplemented with NADPH and reduced GSH. Stable GSH conjugates whose production can be assumed to be the result of chemically reactive metabolites were detected using a quadrupole time of flight mass spectrometer run in untargeted full scan accurate mass MSE mode (Waters Xevo G1 QTOFMSE; Waters GmbH, Eschborn, Germany). This generic GSH adduct detection method and the assay workflow are taking advantage of the specific fragmentation behavior of the peptide moiety upon collision induced dissociation of GSH adducts and so are largely independent of the conjugate (“X”) itself.

[2] = In vitro microsomal stability, rat; format: in vitro ADME; conditions: rat microsomes, 1 µM; value of 10 = low clearance, essentially below detection limit
Protocol: (§1) Incubations of a test compound at a concentration of 1 µM with microsomes (0.5 mg/ml) from the appropriate species (human, mouse, or rat) plus cofactor NADPH were performed in 96-well plates at 37°C on a TECAN automated liquid handling system (Tecan Group Ltd., Männedorf, Switzerland). After pre-incubation of the test compound with the microsomes for 10 min, the enzymatic reaction was started by the addition of cofactors. Aliquots of the incubations are removed at 1, 3, 6, 9, 15, 25, 35, and 45 min and are then quenched with 1:3 (v/v) acetonitrile containing internal standards. Samples were then cooled and centrifuged before analysis of the supernatant by LC-MS/MS. Logarithmic Peak area ratios (test compound peak area/internal standard peak area) were plotted against incubation time and a linear fit made to the data with emphasis upon the initial rate of compound disappearance. The slope of the fit was then used to calculate the intrinsic clearance: Clint (µL/min/mg protein) = −slope (min-1) * 1,000/[protein concentration (mg/ml)].

HT-solubility assay = format: physicochemical; conditions: aqueous buffer, thermodynamic from solid; phosphate buffer pH 6.5
Protocol: This assay was performed on a TECAN station starting from 10 mM DMSO stock solutions of the test compounds. Two aliquots of the test compound were dried and dissolved in phosphate buffer at pH 6.5. Sonication supports optimal re-solubilization. The solutions were then filtered and diluted (3 different dilution levels for each compound) followed by quantification of the dissolved material with Rapid-Fire MS. Quantification was performed for each test compound with a 6-point calibration curve prepared with the same DMSO starting solution.

[3] = Lipophilicity (LogD, octanol/buffer); format: physicochemical; conditions: 1-octanol / 25 mM phosphate buffer; pH 7.4, octanol/25 mM phosphate buffer
Protocol: The experiment started with the accurate coating of the hydrophobic layer (0.45 µm PVDF membranes), which was fixed on the bottom of each DIFI©-tube (Weidmann Medical Technology AG, Rapperswil, Switzerland). The coated membranes were then connected to a 96-well plate which has been prefilled with exactly 150 µl of the selected aqueous buffer solution (25 mM phosphate buffer, pH 7.4). The buffer solution contains already the compound of interest with a maximum starting concentration of 85 µM. To expand the measurement range down to logD = −0.5 and up to logD = +4, it is necessary to carry out the procedure at two different octanol/water ratios: One with an excess of octanol for hydrophilic compounds (logD < 1) and one with a low volume of octanol for the lipophilic compounds (logD > 1). Therefore, parts of the DIFI©-tubes were filled with 15 µl 1-octanol and another part with 1 µl 1-octanol. The resulting sandwich guarantees that the membrane was completely dipped in the buffer solution. The plate was then sealed and shaken for 12 h at room temperature (23°C). During this time, the substance is distributed between the layer, the octanol, and the buffer solution. After having reached a distribution equilibrium, the DIFI©-tubes were easily disassembled from the top of the 96-well plate, so that the remaining sample concentration in the aqueous phase could be analyzed by LC/MS.

[4] = In vitro microsomal stability, human; format: in vitro ADME; conditions: human microsomes, 1 µM; value of 10 = low clearance, essentially below detection limit
Protocol: as §1

[5] = Artificial membrane permeability assay; format: in vitro ADME; conditions: PAMPA, read-out: Permeability Pe
Protocol: The assay was performed in an automated fashion on 96-well microplates. The permeation of drugs was measured using a “sandwich” construction: A filter-plate was coated with phospholipids (membrane) and placed into a donor compartment containing a compound/buffer solution. Finally, the top of filter-plate was filled with buffer solution (acceptor). Donor concentration was measured at t-start (reference) and compared with the donor and acceptor concentration after a certain time (t-end) to calculate the extent of passage of the compound through the membrane. The main readout of the assay was the permeability value Pe expressed in 10^–6 * cm/s. Secondary readouts determined were the amount of compound in the donor and acceptor compartments as well as the retention in the membrane. Depending on the permeation rate and the membrane retention the compounds were classified as low (Pe < 0.2 and membrane < 20%) or medium and high (Pe ≥ 0.2 or Pe < 0.2 and membrane ≥ 20%). Each sample was measured in triplicate and a standard deviation was determined for the permeation constant Pe.

human ATX = target: T1, human ATX (Homo sapiens, UniProt Q13822); experiment: Autotaxin inhibition assay (Amplex-Red); format: biochemical; conditions: ATX 3 nM, LPC 18:1 30 μM, read-out: hATX IC50
T1 construct: made in house
Protocol: Plates were sealed and incubated for 5 min. The final assay concentrations were ATX 3 nM, choline oxidase 2 U/ml, horseradish peroxidase 4 U/ml, LPC 18:1 30 μM, Amplex Red 50 μM, and DMSO 2%.

Single dose PK in rats = format: in vivo; conditions: rat; for AUC(0-inf) / half-life / clearance / Vd / Cmax / Tmax: plasma; for clearance: read-out: CLp; for Vd: read-out: Vdss
Protocol: Exposures in animals treated with ATX-inhibitors were determined from K2EDTA treated plasma by LC-MS/MS at different time points. 25 µL of plasma was used for a single concentration determination. Concentration/time profiles were analyzed with MS Excel (Microsoft Corporation, Redmond, WA, United States).
For PK experiments for 7, 13, 14, and 15, respectively, animals were treated either iv or po and exposures were determined at different time points after compound administration. Suitable formulations for 13 were, for example, NMP:Tris buffer pH 8.5 (30%/70%) for iv administration with a nominal drug concentration of 1 mg/ml (dose 2 mg/kg) and a suspension in NMP:gelatine/NaCl (10%/90%) for po administration with a nominal drug concentration of 2.5 mg/ml (dose 10 mg/kg). PK parameters in Table 2 were estimated from the concentration time profiles using Phoenix WinNonlin software (Certara, Princeton, NJ, United States).

[6] = In vitro microsomal stability, mouse; format: in vitro ADME; conditions: mouse microsomes, 1 µM; value of 10 = low clearance, essentially below detection limit
Protocol: as §1

Row | GSH adducts [1] | Mic CL r [2] | solubility (HT-solubility assay) [µg/mL] | logD at 12 h [3] | Mic CL h [4] | Papp [5] [×10⁻⁶ cm/s] | IC50 (human ATX) [nM] | AUC(0-inf) (Single dose PK in rats; iv bolus, 3 mg/kg) [ng·h/mL] | half-life (Single dose PK in rats; iv bolus, 3 mg/kg) [min] | clearance (Single dose PK in rats; iv bolus, 3 mg/kg) [mL/min/kg] | Vd (Single dose PK in rats; iv bolus, 3 mg/kg) [L/kg] | AUC(0-inf) (Single dose PK in rats; oral gavage, 30 mg/kg) [ng·h/mL] | Cmax (Single dose PK in rats; oral gavage, 30 mg/kg) [ng/mL] | Tmax (Single dose PK in rats; oral gavage, 30 mg/kg) [min] | half-life (Single dose PK in rats; oral gavage, 30 mg/kg) [min] | Oral F (Single dose PK in rats; oral gavage, 30 mg/kg) [%] | Mic CL m [6] | Compound
1 | Neg | 10/na/10 µL/m/mg prot | 8 (≈ 16.8 µM) | 3.2 | 10/na/10 µL/m/mg prot | 1.8 | 137 |  |  |  |  |  |  |  |  |  |  | O=C(COc1ccc(OC(F)(F)F)cc1)N1C[C@@H]2CN(C(=O)c3ccc4[nH]nnc4c3)C[C@H]2C1 [Compound 12, 1-[(3aS,6aS)-5-(1H-Benzotriazole-5-carbonyl)-hexahydro-pyrrolo[3,4-c]pyrrol-2-yl]-2-(4-trifluoromethoxy-phenoxy)-ethanone]
2 | Neg |  | 190 (≈ 377 µM) | 2 | 10/10/na µL/m/mg prot | 0.4 | 8 | 321 | 21 | 156 | 1.7 | 30 | 18 | 15 | 114 | 1.1 | 10/10/na µL/m/mg prot | CS(=O)(=O)c1cc(Cl)cc(COC(=O)N2C[C@@H]3CN(C(=O)c4ccc5[nH]nnc5c4)C[C@H]3C2)c1 [Compound 15, (3aS,6aS)-5-(1H-Benzotriazole-5-carbonyl)-hexahydro-pyrrolo[3,4-c]pyrrole-2-carboxylic acid 3-chloro-5-methanesulfonyl-benzyl ester]
3 | Neg | 40 µL/m/mg prot | 46 (≈ 97.2 µM) | 2.5 | 10 µL/m/mg prot | 2.7 | 6 | 1070 | 78 | 47 | 0.9 | 660 | 130 | 30 | 228 | 6 | 27 µL/m/mg prot | O=C(CCc1ccc(OC(F)(F)F)cc1)N1C[C@@H]2CN(C(=O)c3ccc4[nH]nnc4c3)C[C@H]2C1 [Compound 14, 1-[(3aR,6aR)-5-(1H-benzotriazole-5-carbonyl)-hexahydro-pyrrolo[3,4-c]pyrrol-2-yl]-3-(4-trifluoromethoxy-phenyl)-propan-1-one]
